Experimental data: patent US9061994B1, “Materials and methods useful to induce vacuolization, cell death, or a combination thereof” (The University of Toledo, priority 2011, dated 2015)
“Also recorded” adds a separate entry of the source. Like-named read-outs stand apart in the source and are kept apart here.

Key:
Format in all cases: cell-based, human
U251 glioblastoma cells [1] = test: Sulforhodamine B (SRB) growth inhibition assay; conditions: for GI50: Homo sapiens; for growth inhibitory (GI) activity, in words: 48 h SRB, Table 1, Table 2 (FIG. 64), FIG. 63
Description: Cells experiencing methuosis initially undergo extreme cytoplasmic vacuolization which can be readily assessed by phase contrast microscopy. As viability is compromised (usually between 24-48 h), the cells detach from the culture surface and lose membrane integrity. […] Although methuosis can occur in a broad spectrum of human tumor cell lines, SAR studies were carried out with U251 glioblastoma cells. Therefore, this cell line was used in the present evaluation.
Total protein in adherent cells was measured by the sulforhodamine B (SRB) colorimetric assay, following standard procedures for anticancer drug screening used by the U.S. National Cancer Institute. […] On the day after plating, four wells were assayed to establish a pre-drug (time-0) baseline. Test compounds were diluted as described above and added to the remaining wells. The medium and compounds were replenished after 24 hr. SRB assays were performed at a 48 h endpoint as described, using a SpectraMax Plus 384 plate reader (Molecular Devices, Sunnyvale, Calif.) to determine absorbance at 515 nm.
Cells were seeded in 96-well plates as described in the methods. After 24 h, each compound was added at the indicated concentrations and SRB assays were performed after an additional 48 h. Each point represents the mean±SD of values from four wells. The dotted line on each graph indicates the average absorbance of four wells sampled at time-0 (i.e., the time that the compounds were added).
The human U251 glioblastoma cell line was obtained from the DCT Tumor Repository (National Cancer Institute, Fredrick, Md.). […] All test compounds were dissolved in DMSO and serially diluted in DMSO so that the desired final drug concentrations could be achieved by making a 1/1000 dilution into the culture medium. One day after plating, four wells were assayed to establish a pre-drug (time-0) baseline. At the same time, fresh medium containing test compounds was added to the remaining wells. Control wells received DMSO alone. SRB assays were performed at a 48 h endpoint. To minimize the impact of potential variations in stability among the compounds, medium with test compound was replenished after the first 24 h.

U251 glioblastoma cells [2] = test: Trypan blue dye-exclusion viability assay; conditions: for cell viability, in words: 10 μM, 2 days; for viability at 10 µM: Homo sapiens, U-251, 48 h, each compound at 10 μM for 2 days, mean ± SD of three cultures
Description: To directly compare the effects of different compounds on cell viability, the trypan blue dye-exclusion assay was utilized to distinguish live (unstained) from dead (blue) cells. U251 cells were seeded in 35 mm diameter dishes at a density of 100,000 cells/dish. Twenty-four hours later, test compounds were added in fresh medium at a final concentration of […] received an equivalent volume of vehicle (DMSO). […] At the end of the incubation, floating and adherent cells were combined and collected by centrifugation. Cells were washed with Hank's balanced salt solution (HBSS) and incubated with 0.2% trypan blue solution (Sigma, St. Louis, Mo.) for 5 min at room temperature. The percentage of dead cells was determined by light microscopy using a hemocytometer. Three separate cultures were assayed for each compound.
Cells were seeded in 35 mm dishes and treated for 48 h with compounds at a final concentration of […] blue dye-exclusion assays were performed as described in the methods. Values are the mean±SD of separate assays performed on three parallel cultures.

U251 glioblastoma cells [3] = test: Cell morphology / vacuolization by phase-contrast microscopy
U251 glioblastoma cells [4] = test: SAR comparison of methuosis induction (vacuolization, MTT viability, colony formation) versus MIPP; conditions: 10 μM, morphology 24 h and 48 h, MTT 48 h, colony formation (FIGS. 36, 48)
Source text: Analogs based on the α,β-unsaturated ketone core were designed from Claisen-Schmidt condensations between indole-3-carboxaldehydes and aromatic ketones. Such aldol condensations are known to proceed well employing secondary amines as catalysts. Initially, the orientation of the pyridine nitrogen was investigated.

[5] = concentration not singled out ([…] and 10 μM or as in figure)

Row | Compound | GI50 (U251 glioblastoma cells [1]; U-251, 48 h, read-out: GI50) [µM] | viability at 10 µM (U251 glioblastoma cells [2]) [%] | cell morphology / vacuolization (U251 glioblastoma cells [3]; 10 μM) | methuosis-inducing activity compared with compound 2 (MIPP) (U251 glioblastoma cells [4]) | other results
1 | CCCc1[nH]c2ccc(OC)cc2c1/C=C/C(=O)c1ccncc1 [107b, trans-3-(5-methoxy-2-propylindol-3-yl)-1-(4-pyridinyl)-2-propen-1-one] | 15.3 | 83.9 ± 2.3 | extensively vacuolated | – | cell viability, in words (U251 glioblastoma cells [2]): only minimally affected
2 | NCc1ccc2[nH]cc(/C=C/C(=O)c3ccncc3)c2c1 [402i, trans-3-(5-aminomethylindol-3-yl)-1-(4-pyridinyl)-2-propen-1-one] | – | – | – | – | growth inhibitory (GI) activity, in words (U251 glioblastoma cells [1]; U251): completely inactive in both growth inhibition and vacuolization assays; cell morphology / vacuolization (U251 glioblastoma cells [3]; [5]): completely inactive in both growth inhibition and vacuolization assays
3 | trans-3-[5-((4-methylbenzoate)methoxy)-1H-Indol-3-yl)]-1-(4-pyridinyl)-2-propen-1-one [compound 26] | – | – | – | neither compound 26 nor compound 27 induced methuosis | –
4 | O=C(/C=C/c1c[nH]c2ccccc12)c1cccnc1 [compound 11, trans-3-(1H-indol-3-yl)-1-(3-pyridinyl)-2-propen-1-one] | – | – | – | relatively ineffective at inducing methuosis compared with MIPP | –
5 | COc1ccc2[nH]cc(/C=C/C(=O)c3cnccn3)c2c1 [compound 17, trans-3-(5-methoxy-1H-indol-3-yl)-1-(pyrazine)-2-propen-1-one] | – | – | – | Loss of activity | –
6 | O=C(/C=C/c1c[nH]c2ccccc12)c1ccccc1 [compound 9, trans-3-(1H-indol-3-yl)-1-phenyl-2-propen-1-one] | – | – | – | relatively ineffective at inducing methuosis compared with MIPP | –
7 | COc1ccc2[nH]cc(/C=C/C(=O)c3cccnc3)c2c1 [compound 16, trans-3-(5-methoxy-1H-indol-3-yl)-1-(3-pyridinyl)-2-propen-1-one] | – | – | – | Loss of activity | –
8 | trans-3-[5-((4-carboxyphenyl)-methoxy)-1H-Indol-3-yl)]-1-(4-pyridinyl)-2-propen-1-one [compound 27] | – | – | – | neither compound 26 nor compound 27 induced methuosis | –
9 | COc1ccc2[nH]c(CC(C)C)c(/C=C/C(=O)c3ccncc3)c2c1 [107d, trans-3-(2-isobutyl-5-methoxyindol-3-yl)-1-(4-pyridinyl)-2-propen-1-one] | 16.6 | 87.4 ± 1.5 | extensively vacuolated | – | cell viability, in words (U251 glioblastoma cells [2]): only minimally affected
10 | CCc1[nH]c2ccc(OC)cc2c1/C=C/C(=O)c1ccncc1 [compound 107a, trans-3-(2-ethyl-5-methoxyindol-3-yl)-1-(4-pyridinyl)-2-propen-1-one] | 3.2 | 34.6 ± 1.1 | morphological effects indistinguishable from those observed with the same concentration of MOMIPP | – | GI50 (U251 glioblastoma cells [1]; U-251, U251, dose-response curves repeated six more times (Table 1 footnote g), read-out: GI50, means (±SD) for all seven determinations): 2.8 µM; growth inhibitory (GI) activity, in words (U251 glioblastoma cells [1]; U251): not statistically different from the MOMIPP; cell viability, in words (U251 glioblastoma cells [2]): substantial loss of cell viability
11 | O=C(/C=C/c1c[nH]c2ccc(O)cc12)c1ccncc1 [compound 15, trans-3-(5-hydroxy-1H-indol-3-yl)-1-(4-pyridinyl)-2-propen-1-one] | – | – | – | greatly reduced activity of the compound in all of the assays | –
12 | COc1ccc2[nH]cc(/C=C/C(=O)c3ccncc3)c2c1 [compound 13, trans-3-(5-methoxy-1H-indol-3-yl)-1-(4-pyridinyl)-2-propen-1-one] | 18.6 | 91.2 ± 0.7 | extensively vacuolated | – | cell viability, in words (U251 glioblastoma cells [2]): only minimally affected
13 | O=C(/C=C/c1c[nH]c2ccccc12)c1ccccn1 [compound 10, trans-3-(1H-indol-3-yl)-1-(2-pyridinyl)-2-propen-1-one] | – | – | – | relatively ineffective at inducing methuosis compared with MIPP | –
14 | CCCCOc1ccc2[nH]c(C)c(/C=C/C(=O)c3ccncc3)c2c1 [402d, trans-3-(5-butoxy-2-methylindole-3-yl)-1-(4-pyridinyl)-2-propen-1-one] | – | – | – | – | growth inhibitory (GI) activity, in words (U251 glioblastoma cells [1]; U251): markedly reduced; also recorded: complete lack of GI activity; cell morphology / vacuolization (U251 glioblastoma cells [3]; [5]): produced much fewer and smaller vacuoles and had little effect on cell density
15 | COc1ccc2c(c1)c(/C=C/C(=O)c1ccncc1)cn2C [compound 20, trans-3-(5-methoxy-1-methyl-Indol-3-yl)-1-(4-pyridinyl)-2-propen-1-one] | – | – | – | induced some cytoplasmic vacuolization but had modest effects on cell viability | –
16 | COc1ccc2[nH]c(C)c(/C=C/C(=O)c3cccnc3)c2c1 [meta-MOMIPP, trans-3-(5-methoxy-2-methylindol-3-yl)-1-(3-pyridinyl)-2-propen-1-one] | 16.9 | 96.2 ± 1.3 | did not accumulate vacuoles | – | –
17 | COc1ccc2[nH]c(C(C)C)c(/C=C/C(=O)c3ccncc3)c2c1 [107c, trans-3-(2-isopropyl-5-methoxyindol-3-yl)-1-(4-pyridinyl)-2-propen-1-one] | > 20 | 78.8 ± 1.1 | extensively vacuolated | – | cell viability, in words (U251 glioblastoma cells [2]): only minimally affected
18 | Cc1[nH]c2ccc(N)cc2c1/C=C/C(=O)c1ccncc1 [402g, trans-3-(5-amino-2-methylindol-3-yl)-1-(4-pyridinyl)-2-propen-1-one] | – | – | did cause vacuolization after 48 h | – | growth inhibitory (GI) activity, in words (U251 glioblastoma cells [1]; U251): no GI activity in the concentration range tested
19 | O=C(/C=C/c1c[nH]c2ccc(O)cc12)c1ccncc1 [compound 21, trans-3-(5-hydroxy-1H-indol-3-yl)-1-(4-pyridinyl)-2-propen-1-one] | – | – | – | marked reduction in activity compared to the 5-methoxy compound 19 | –
